From US8722683B2, “Benzodioxole piperazine compounds” (Hoffmann LA-Roche Inc., priority 2011, dated 2014)
Where two headings read alike, the source gives them in different places.

How the values were obtained:
5-HT2A receptor = 5-HT2A receptor (Homo sapiens (Human), UniProt P28223); test: Radioligand binding ([3H]-ketanserin) to cloned 5-HT2A receptor expressed in HEK-293 EBNA cells
Experimental: HEK293 EBNA cells were transiently transfected with expression plasmids encoding for the human D2 or D3 or for the human 5-HT2A receptor, respectively. The cells were harvested 48 h post-transfection, washed three times with cold PBS and stored at −80° C. prior to use. The pellet was suspended in cold 50 mM Tris-HCl buffer containing 10 mM EDTA (pH 7.4) and was homogenized with a Polytron (Kinematica AG, Basel, Switzerland) for 20-30 sec at 12.000 rpm. After centrifugation at 48.000×g for 30 min at 4° C., the pellet was resuspended in cold 10 mM Tris-HCl buffer containing 0.1 mM EDTA (pH 7.4), homogenized, and centrifuged as above. This pellet was further resuspended in a smaller volume of ice cold 10 mM Tris-HCl buffer containing 0.1 mM EDTA (pH 7.4) and homogenized with a Polytron for 20-30 sec at 12.000 rpm. The protein content of this homogenate was determined with the Bio-Rad (Bradford) Protein Assay (Biorad Laboratories GmbH, München, Germany) according to the instructions of the manufacturer using gamma globulin as the standard. This homogenate was stored at −80° C. in aliquots and thawed immediately prior to use.
Radioligand Binding Assay
Aliquots of membrane preparations were thawed at RT, resupended in assay buffer (D2, D3: 50 mM Tris-HCl, 120 mM NaCl, 5 mM MgCl2, 1 mM EDTA, 5 mM KCl, 1.5 mM CaCl2, pH=7.4; 5-HT2A: 50 mM Tris-HCl, 10 mM MgCl2, 1 mM EGTA, pH=7.4), homogenized with a Polytron for 20-30 sec at 12.000 rpm and adjusted to a final concentration of approximately 7.5 μg protein/well (D2, D3) and 15 μg protein/well (5-HT2A), respectively.
The binding affinity (Ki) of the compounds was determined using radioligand binding. […] The nonspecific binding was determined with equally composed reaction mixtures in the presence of 10 μM unlabelled spiperone. Per well 45 μl of Microscint 40 (Perkin Elmer, Schwerzenbach, Switzerland) was added, plates for sealed, shaken for 20 min and counted for 3 min on a Topcount Microplate Scintillation Counter (Canberra Packard SA, Zürich, Switzerland) with quenching correction.
The CPM value for each duplicate of a concentration of competing compound was averaged (y1), then the % specific binding was calculated according to the equation (((y1−non-specific)/(total binding−non-specific))×100). Graphs were plotted with the % specific binding using XLfit, a curve fitting program that iteratively plots the data using Levenberg-Marquardt algorithm. The single site competition analysis equation used was y=A+((B−A)/(1+((x/C)D))), where y is the % specific binding, A is the minimum y, B is the maximum y, C is the IC50, x is the log 10 of the concentration of the competing compound and D is the slope of the curve (the Hill Coefficient). […] The affinity constant (Ki) was calculated using the Cheng-Prusoff equation Ki=(IC50/1+([L]/Kd), where [L] is the concentration of radioligand and Kd is the dissociation constant of the radioligand at the receptor as determined by the saturation isotherm.

D2 receptor = D2 receptor (Homo sapiens (Human), UniProt P14416); test: Radioligand binding ([3H]-spiperone) to cloned D2 receptor expressed in HEK-293 EBNA cells; conditions: HEK293 EBNA membranes, 0.7 nM [3H]-spiperone
D3 receptor = D3 receptor (Homo sapiens (Human), UniProt P35462); test: Radioligand binding ([3H]-spiperone) to cloned D3 receptor expressed in HEK-293 EBNA cells; conditions: HEK293 EBNA membranes, 0.5 nM [3H]-spiperone
[1] = human 5-HT2A receptor, HEK293 EBNA membranes, 1.1 nM [3H]-ketanserin

Chain of 5-HT2A receptor (P28223 whole entry): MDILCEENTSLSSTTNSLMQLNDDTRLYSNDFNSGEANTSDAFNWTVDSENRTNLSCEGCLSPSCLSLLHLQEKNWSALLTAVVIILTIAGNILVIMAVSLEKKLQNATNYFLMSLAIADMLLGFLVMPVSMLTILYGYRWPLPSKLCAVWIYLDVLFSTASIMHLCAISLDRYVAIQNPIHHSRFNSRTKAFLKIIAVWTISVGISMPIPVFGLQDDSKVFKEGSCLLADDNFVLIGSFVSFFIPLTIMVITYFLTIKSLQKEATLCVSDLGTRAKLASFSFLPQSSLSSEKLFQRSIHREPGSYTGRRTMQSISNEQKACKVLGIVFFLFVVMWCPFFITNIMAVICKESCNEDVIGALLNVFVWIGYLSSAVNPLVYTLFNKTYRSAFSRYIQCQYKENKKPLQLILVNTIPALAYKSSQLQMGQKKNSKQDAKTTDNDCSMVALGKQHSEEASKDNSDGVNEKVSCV
Chain of D3 receptor (P35462 whole entry): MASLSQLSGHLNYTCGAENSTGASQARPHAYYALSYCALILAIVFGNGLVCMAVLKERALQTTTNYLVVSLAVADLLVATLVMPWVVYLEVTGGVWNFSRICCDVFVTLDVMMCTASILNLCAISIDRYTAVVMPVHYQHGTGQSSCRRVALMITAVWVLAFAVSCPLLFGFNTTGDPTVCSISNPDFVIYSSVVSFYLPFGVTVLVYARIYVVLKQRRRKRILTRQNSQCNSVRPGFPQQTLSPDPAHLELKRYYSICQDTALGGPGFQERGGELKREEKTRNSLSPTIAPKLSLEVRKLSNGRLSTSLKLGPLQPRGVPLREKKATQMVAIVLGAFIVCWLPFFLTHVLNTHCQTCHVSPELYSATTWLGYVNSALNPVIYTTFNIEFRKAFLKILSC
Chain of D2 receptor (P14416 whole entry): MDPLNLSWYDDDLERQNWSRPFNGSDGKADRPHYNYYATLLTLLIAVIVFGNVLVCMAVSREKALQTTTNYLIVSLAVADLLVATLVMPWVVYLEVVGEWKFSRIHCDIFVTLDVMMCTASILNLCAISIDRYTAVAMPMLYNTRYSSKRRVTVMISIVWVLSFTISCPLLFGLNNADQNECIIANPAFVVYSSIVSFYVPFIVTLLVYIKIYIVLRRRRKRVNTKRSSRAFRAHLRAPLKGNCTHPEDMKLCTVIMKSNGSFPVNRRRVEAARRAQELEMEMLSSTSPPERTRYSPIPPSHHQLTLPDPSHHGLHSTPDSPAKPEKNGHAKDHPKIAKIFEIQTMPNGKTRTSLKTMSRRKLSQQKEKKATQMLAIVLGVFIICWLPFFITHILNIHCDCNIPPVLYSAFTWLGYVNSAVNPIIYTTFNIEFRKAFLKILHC

melting point [°C]	SMILES	Ki (5-HT2A receptor) [µM]	Ki (D2 receptor) [µM]	Ki (D3 receptor) [µM]	Ki (5-HT2A receptor; [1]) [µM]
–	COC(C)CC(=O)N[C@H]1CC[C@H](CCN2CCN(c3cccc4c3OCO4)CC2)CC1 (stereo partly drawn) [Example 21, Trans-N-{4-[2-(4-Benzo[1,3]dioxol-4-yl-piperazin-1-yl)-ethyl]-cyclohexyl}-3-methoxy-butyramide]	0.0243	0.181	0.00276	–
190	O=C(CC1COC1)N[C@H]1CC[C@H](CCN2CCN(c3cccc4c3OCO4)CC2)CC1 [Example 22, Trans-N-{4-[2-(4-Benzo[1,3]dioxol-4-yl-piperazin-1-yl)-ethyl]-cyclohexyl}-2-oxetan-3-yl-acetamide]	–	0.106	0.00206	–
–	O=C(N[C@H]1CC[C@H](CCN2CCN(c3cccc4c3OCO4)CC2)CC1)C1CC1(F)F (stereo partly drawn) [Example 20, Trans-2,2-Difluoro-cyclopropanecarboxylic acid {4-[2-(4-benzo[1,3]dioxol-4-yl-piperazin-1-yl)-ethyl]-cyclohexyl}-amide]	0.0268	0.144	0.00255	–
–	O=C(N[C@H]1CC[C@H](CCN2CCN(c3cccc4c3OCO4)CC2)CC1)C1CCS(=O)(=O)C1 (stereo partly drawn) [Example 52, 1,1-Dioxo-tetrahydro-1,6-thiophene-3-carboxylic acid-trans-N-{4-[2-(4-benzo[1,3]dioxol-4-yl-piperazin-1-yl)-ethyl]-cyclohexyl}-amide]	–	0.059	0.00356	0.0043
–	CC(C)[C@H](O)C(=O)N[C@H]1CC[C@H](CCN2CCN(c3cccc4c3OCO4)CC2)CC1 [Example 40, (S)-Trans-N-{4-[2-(4-Benzo[1,3]dioxol-4-yl-piperazin-1-yl)-ethyl]-cyclohexyl}-2-hydroxy-3-methyl-butyramide]	0.0225	0.0734	0.0148	–
–	CN(C)S(=O)(=O)N[C@H]1CC[C@H](CCN2CCN(c3cccc4c3OCO4)CC2)CC1 [Example 76, N-trans-{4-[2-(4-benzo[1,3]dioxol-4-yl-piperazin-1-yl)-ethyl]-cyclohexyl}-N,N-dimethyl-sulfamide]	0.0216	0.128	0.00336	–
–	CN1CCC(C(=O)N[C@H]2CC[C@H](CCN3CCN(c4cccc5c4OCO5)CC3)CC2)CC1 [Example 57, 1-Methyl-piperidine-4-carboxylic acid-trans-N-{4-[2-(4-benzo[1,3]dioxol-4-yl-piperazin-1-yl)-ethyl]-cyclohexyl}-amide]	0.0153	0.0629	0.0249	–
–	O=C(C[C@H]1COCCO1)N[C@H]1CC[C@H](CCN2CCN(c3cccc4c3OCO4)CC2)CC1 (single isomer, unassigned) [Example 4, Trans-N-{4-[2-(4-Benzo[1,3]dioxol-4-yl-piperazin-1-yl)-ethyl]-cyclohexyl}-2-(S) or (R)[1,4]dioxan-2-yl-acetamide]	–	–	–	0.00778
–	CN1CCN(CC(=O)N[C@H]2CC[C@H](CCN3CCN(c4cccc5c4OCO5)CC3)CC2)CC1 [Example 61, Trans-N-{4-[2-(4-Benzo[1,3]dioxol-4-yl-piperazin-1-yl)-ethyl]-cyclohexyl}-2-(4-methyl-piperazin-1-yl)-acetamide]	0.016	0.0381	0.00463	–
–	O=C(C[C@@H]1COCCO1)N[C@H]1CC[C@H](CCN2CCN(c3cccc4c3OCO4)CC2)CC1 (single isomer, unassigned) [Example 5, Trans-N-{4-[2-(4-Benzo[1,3]dioxol-4-yl-piperazin-1-yl)-ethyl]-cyclohexyl}-2-(R) or (S)-[1,4]dioxan-2-yl-acetamide]	–	–	–	0.0123
–	[2H]C1([2H])Oc2cccc(N3CCN(CC[C@H]4CC[C@H](NC(=O)C[C@H]5COCCO5)CC4)CC3)c2O1 [Example 78, N-trans-{4-[2-(4-Benzo(2,2-D2)-[1,3]dioxol-4-yl-piperazin-1-yl)-ethyl]-cyclohexyl}-2-(S)-[1,4]dioxan-2-yl-acetamide]	–	0.198	–	0.0134
–	CC1(C(=O)N[C@H]2CC[C@H](CCN3CCN(c4cccc5c4OCO5)CC3)CC2)COC1 [Example 58, 3-Methyl-oxetane-3-carboxylic acid-trans-N-{4-[2-(4-benzo[1,3]dioxol-4-yl-piperazin-1-yl)-ethyl]-cyclohexyl}-amide]	0.0156	0.0811	0.00682	–
–	O=C(C[C@@H]1CCCOC1)N[C@H]1CC[C@H](CCN2CCN(c3cccc4c3OCO4)CC2)CC1 (single isomer, unassigned) [Example 32, Trans-N-{4-[2-(4-Benzo[1,3]dioxol-4-yl-piperazin-1-yl)-ethyl]-cyclohexyl}-2-(S) or (R)-tetrahydro-pyran-3-yl-acetamide]	–	0.137	–	0.0262
–	CCC(O)C(=O)N[C@H]1CC[C@H](CCN2CCN(c3cccc4c3OCO4)CC2)CC1 (stereo partly drawn) [Example 38, Trans-N-{4-[2-(4-Benzo[1,3]dioxol-4-yl-piperazin-1-yl)-ethyl]-cyclohexyl}-2-hydroxy-butyramide]	0.0258	0.122	0.0125	–
–	O=C(N[C@H]1CC[C@H](CCN2CCN(c3cccc4c3OCO4)CC2)CC1)c1ccc2c(c1)OCCO2 [Example 49, 2,3-Dihydro-benzo[1,4]dioxine-6-carboxylic acid-trans-N-{4-[2-(4-benzo[1,3]dioxol-4-yl-piperazin-1-yl)-ethyl]-cyclohexyl}-amide]	0.0106	4.82	0.00459	–
–	O=C(N[C@H]1CC[C@H](CCN2CCN(c3cccc4c3OCO4)CC2)CC1)C1CCOCC1 [Example 43, Tetrahydro-pyran-4-carboxylic acid-trans-N-{4-[2-(4-benzo[1,3]dioxol-4-yl-piperazin-1-yl)-ethyl]-cyclohexyl}-amide]	0.00774	0.219	0.00448	–
–	CC(C)[C@@H](O)C(=O)N[C@H]1CC[C@H](CCN2CCN(c3cccc4c3OCO4)CC2)CC1 [Example 39, (R)-Trans-N-{4-[2-(4-Benzo[1,3]dioxol-4-yl-piperazin-1-yl)-ethyl]-cyclohexyl}-2-hydroxy-3-methyl-butyramide]	0.0347	0.0902	0.00577	–
–	O=C(C[C@H]1CCCOC1)N[C@H]1CC[C@H](CCN2CCN(c3cccc4c3OCO4)CC2)CC1 (single isomer, unassigned) [Example 33, Trans-N-{4-[2-(4-Benzo[1,3]dioxol-4-yl-piperazin-1-yl)-ethyl]-cyclohexyl}-2-(R) or (S)-tetrahydro-pyran-3-yl-acetamide]	–	0.184	–	0.0244
–	O=C(CC1COCCO1)N[C@H]1CC[C@H](CCN2CCN(c3cccc4c3OCO4)CC2)CC1 (stereo partly drawn) [Example 3, Trans-N-{4-[2-(4-Benzo[1,3]dioxol-4-yl-piperazin-1-yl)-ethyl]-cyclohexyl}-2-[1,4]dioxan-2-yl-acetamide]	0.0118	0.198	–	–
–	COC1(C(=O)N[C@H]2CC[C@H](CCN3CCN(c4cccc5c4OCO5)CC3)CC2)CC1 [Example 62, 1-Methoxy-cyclopropanecarboxylic acid-trans-N-{4-[2-(4-benzo[1,3]dioxol-4-yl-piperazin-1-yl)-ethyl]-cyclohexyl}-amide]	0.00627	0.0865	0.0143	–
